# Tests used:
# [1] = target: T1, Human neuropeptide Y (NPY-Y1) (Homo sapiens, UniProt P25929); assay: Radioligand binding, human neuropeptide Y NPY-Y1 membranes, FlashPlate, [125I]-PYY; settings: compound at 10 μM; for A9 radioligand binding, percentage inhibition / A9: inhibition of radioligand binding: [125I]-PYY
# T1 construct: purchased Perkin Elmer Biosignal
# T1 sequence (P25929 1-384): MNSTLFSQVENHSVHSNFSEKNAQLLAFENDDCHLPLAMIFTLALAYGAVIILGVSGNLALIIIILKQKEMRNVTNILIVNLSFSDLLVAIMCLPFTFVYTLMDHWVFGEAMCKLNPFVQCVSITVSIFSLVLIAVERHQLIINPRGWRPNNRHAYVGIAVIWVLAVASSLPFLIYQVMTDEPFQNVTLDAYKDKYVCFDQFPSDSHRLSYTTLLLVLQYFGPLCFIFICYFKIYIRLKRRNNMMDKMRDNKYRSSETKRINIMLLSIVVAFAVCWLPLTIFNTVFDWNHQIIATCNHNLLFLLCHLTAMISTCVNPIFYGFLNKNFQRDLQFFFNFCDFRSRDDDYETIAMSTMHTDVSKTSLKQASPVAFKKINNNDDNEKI
# Outline: (§1)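 Cloned human receptor membranes were coated onto FlashPlate wells and incubated with radioligand and compound (added from a 0.5 mM DMSO daughter plate) for 1 hour at room temperature in the dark. Scintillation counting gave percent inhibition, with DMSO defining total and reference ligand defining non-specific binding.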
# Human Melanocortin (MC3) = target: T2, Human Melanocortin (MC3) (Homo sapiens, UniProt P41968); assay: Radioligand binding, human melanocortin MC3 membranes, FlashPlate, [125I]-NDP-αMSH; settings: compound at 10 μM; for A3 radioligand binding, percentage inhibition / A3: inhibition of radioligand binding: [125I]-NDP-αMSH; for A3: inhibition of radioligand binding: human MC3 membranes
# T2 construct: purchased Perkin Elmer Biosignal
# T2 sequence (P41968 whole entry): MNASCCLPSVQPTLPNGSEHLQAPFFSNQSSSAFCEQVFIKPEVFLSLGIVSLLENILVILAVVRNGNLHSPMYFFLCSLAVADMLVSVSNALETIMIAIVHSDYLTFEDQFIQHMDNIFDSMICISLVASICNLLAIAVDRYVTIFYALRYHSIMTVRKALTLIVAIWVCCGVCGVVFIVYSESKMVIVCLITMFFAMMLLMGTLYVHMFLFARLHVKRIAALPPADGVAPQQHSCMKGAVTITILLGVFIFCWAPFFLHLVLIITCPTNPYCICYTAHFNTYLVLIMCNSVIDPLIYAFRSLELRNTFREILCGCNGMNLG
# Outline: as §1
# Human opioid (ORL1) = target: T3, Human opioid (ORL1) (Homo sapiens, UniProt P41146); assay: Radioligand binding, human opioid ORL1 membranes, FlashPlate, [125I]-Nociceptin; settings: compound at 10 μM; for A10 radioligand binding, percentage inhibition / A10: inhibition of radioligand binding: [125I]-Nociceptin
# T3 construct: purchased Perkin Elmer Biosignal
# T3 sequence (P41146 whole entry): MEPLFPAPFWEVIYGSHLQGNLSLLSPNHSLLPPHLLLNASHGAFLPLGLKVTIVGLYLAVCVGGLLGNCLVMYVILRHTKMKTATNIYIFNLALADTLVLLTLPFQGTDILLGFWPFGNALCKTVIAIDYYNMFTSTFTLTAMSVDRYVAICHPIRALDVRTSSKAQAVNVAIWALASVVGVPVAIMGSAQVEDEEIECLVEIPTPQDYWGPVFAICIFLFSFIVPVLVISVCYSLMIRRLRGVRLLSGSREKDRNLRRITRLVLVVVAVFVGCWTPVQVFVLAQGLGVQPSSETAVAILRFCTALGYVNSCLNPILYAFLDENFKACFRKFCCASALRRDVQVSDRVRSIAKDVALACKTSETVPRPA
# Outline: as §1
# Human δ-opioid (DOP) = target: T4, Human δ-opioid (DOP) (Homo sapiens, UniProt P41143); assay: Radioligand binding, human δ-opioid (DOP) membranes, FlashPlate, [3H]-Bremazocine; settings: compound at 10 μM; for A1 radioligand binding, percentage inhibition / A1: inhibition of radioligand binding: [3H]-Bremazocine; for A1: inhibition of radioligand binding: human DOP membranes
# T4 construct: purchased Perkin Elmer Biosignal
# T4 sequence (P41143 whole entry): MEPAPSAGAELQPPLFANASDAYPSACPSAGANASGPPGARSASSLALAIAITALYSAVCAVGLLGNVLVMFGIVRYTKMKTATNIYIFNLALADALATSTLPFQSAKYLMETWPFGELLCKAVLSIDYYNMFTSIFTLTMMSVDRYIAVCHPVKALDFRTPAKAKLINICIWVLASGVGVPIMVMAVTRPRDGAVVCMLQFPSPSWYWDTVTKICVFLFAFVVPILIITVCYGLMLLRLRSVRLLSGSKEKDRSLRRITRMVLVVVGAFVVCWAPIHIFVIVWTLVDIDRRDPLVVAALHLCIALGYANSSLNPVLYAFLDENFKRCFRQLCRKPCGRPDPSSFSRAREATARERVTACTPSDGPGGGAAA
# Outline: as §1
# Human neurokinin (NK1) = target: T5, Human neurokinin (NK1) (Homo sapiens, UniProt P25103); assay: Radioligand binding, human neurokinin NK1 membranes, filtration, [125I]-Substance P; settings: compound at 10 μM; for A8 radioligand binding, percentage inhibition / A8: inhibition of radioligand binding: [125I]-Substance P; for A8: inhibition of radioligand binding: human NK1 membranes
# T5 construct: purchased Perkin Elmer Biosignal
# T5 sequence (P25103 whole entry): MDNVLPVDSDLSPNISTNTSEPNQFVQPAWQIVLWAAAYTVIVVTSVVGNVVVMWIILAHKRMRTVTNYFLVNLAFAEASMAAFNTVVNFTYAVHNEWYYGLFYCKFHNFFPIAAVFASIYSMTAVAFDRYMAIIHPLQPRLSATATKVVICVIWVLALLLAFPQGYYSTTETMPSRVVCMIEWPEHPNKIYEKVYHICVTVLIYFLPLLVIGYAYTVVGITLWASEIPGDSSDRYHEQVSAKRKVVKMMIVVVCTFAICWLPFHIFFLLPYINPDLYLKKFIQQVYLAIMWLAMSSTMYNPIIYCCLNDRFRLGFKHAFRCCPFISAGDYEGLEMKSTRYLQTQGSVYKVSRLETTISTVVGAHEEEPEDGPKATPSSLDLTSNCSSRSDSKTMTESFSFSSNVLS
# Outline: (§2)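 Filtration binding on cloned human receptor membranes (1 Unit/well), [125I]-Substance P for NK1 and [3H]-Diprenorphine for KOP, 1 h at room temperature. Filters PEI-presoaked, washed with cold 50 mM Tris-HCl pH 7.4, counted by scintillation; percent inhibition calculated, reference ligand defining non-specific binding.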
# [2] = target: T6, Human melanin-concentrating hormone (MCH1) (Homo sapiens, UniProt Q99705); assay: Radioligand binding, human melanin-concentrating hormone MCH1 membranes, FlashPlate, [125I]-S36057; settings: compound at 10 μM; for A6 radioligand binding, percentage inhibition: [125I]-S36057; for A6: inhibition of radioligand binding: [125I]-S36057, human MCH1 membranes
# T6 construct: purchased Perkin Elmer Biosignal
# T6 sequence (Q99705 whole entry): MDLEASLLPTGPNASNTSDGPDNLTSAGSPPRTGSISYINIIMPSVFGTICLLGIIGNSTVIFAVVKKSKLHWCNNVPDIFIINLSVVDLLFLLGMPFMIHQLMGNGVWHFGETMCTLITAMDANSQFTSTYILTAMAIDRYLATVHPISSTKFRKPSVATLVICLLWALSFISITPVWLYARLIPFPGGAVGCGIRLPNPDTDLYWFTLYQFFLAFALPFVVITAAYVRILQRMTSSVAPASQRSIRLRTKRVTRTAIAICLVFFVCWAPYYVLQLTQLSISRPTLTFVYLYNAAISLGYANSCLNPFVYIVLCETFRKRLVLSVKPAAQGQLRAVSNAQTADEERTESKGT
# Outline: as §1
# Mouse urotensin (mUR2) = target: T7, Mouse urotensin (mUR2) (Mus musculus, UniProt Q8VIH9); assay: Radioligand binding, mouse urotensin mUR2 membranes, FlashPlate, [125I]-Urotensin II; settings: compound at 10 μM; for A11 radioligand binding, percentage inhibition / A11: inhibition of radioligand binding: [125I]-Urotensin II; for A11: inhibition of radioligand binding: mouse mUR2 membranes
# T7 construct: purchased Perkin Elmer Biosignal
# T7 sequence (Q8VIH9 1-385): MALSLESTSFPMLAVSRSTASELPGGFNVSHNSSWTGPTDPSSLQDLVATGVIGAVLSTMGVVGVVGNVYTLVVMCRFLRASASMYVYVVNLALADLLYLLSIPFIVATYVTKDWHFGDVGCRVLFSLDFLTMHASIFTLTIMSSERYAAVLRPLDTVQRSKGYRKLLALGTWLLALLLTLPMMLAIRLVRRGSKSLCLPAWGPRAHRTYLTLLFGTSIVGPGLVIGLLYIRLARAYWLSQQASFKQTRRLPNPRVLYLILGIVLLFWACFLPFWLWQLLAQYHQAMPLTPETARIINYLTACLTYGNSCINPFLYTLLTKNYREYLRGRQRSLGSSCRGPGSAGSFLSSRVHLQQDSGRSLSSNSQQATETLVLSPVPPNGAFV
# Outline: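 Cloned mouse urotensin (mUR2) receptor membranes from Perkin Elmer Biosignal were immobilized in FlashPlate microplates using a proprietary coating. Each well got 19.5 μl buffer, then 0.5 μl of DMSO, reference ligand, or compound. Adding 5 μl of [125I]-Urotensin II, diluted to 5× final concentration in binding buffer, started binding. Plates were sealed with TopSeal-A and incubated 1 hour at room temperature in the dark. Wells were counted for 30 seconds each on a TopCount after a 60-second delay, and percentage inhibition was calculated.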
# Human melanocortin (MC5) = target: T8, Human melanocortin (MC5) (Homo sapiens, UniProt P33032); assay: Radioligand binding, human melanocortin MC5 membranes, FlashPlate, [125I]-NDP-αMSH; settings: compound at 10 μM; for A5 radioligand binding, percentage inhibition / A5: inhibition of radioligand binding: [125I]-NDP-αMSH; for A5: inhibition of radioligand binding: human MC5 membranes
# T8 construct: purchased Perkin Elmer Biosignal
# T8 sequence (P33032 whole entry): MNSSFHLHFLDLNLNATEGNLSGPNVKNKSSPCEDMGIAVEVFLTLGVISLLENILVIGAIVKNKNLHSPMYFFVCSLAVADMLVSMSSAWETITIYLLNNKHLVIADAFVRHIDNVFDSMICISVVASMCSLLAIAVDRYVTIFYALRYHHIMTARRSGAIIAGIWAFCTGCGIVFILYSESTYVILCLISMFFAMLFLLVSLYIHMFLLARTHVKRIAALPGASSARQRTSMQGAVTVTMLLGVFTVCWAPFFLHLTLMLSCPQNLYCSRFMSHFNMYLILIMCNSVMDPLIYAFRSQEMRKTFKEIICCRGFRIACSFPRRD
# Outline: as §1
# Human Melanocortin (MC4) = target: T9, Human Melanocortin (MC4) (Homo sapiens, UniProt P32245); assay: Radioligand binding, human melanocortin MC4 membranes, FlashPlate, [125I]-NDP-αMSH; settings: compound at 10 μM; for A4 radioligand binding, percentage inhibition / A4: inhibition of radioligand binding: [125I]-NDP-αMSH; for A4: inhibition of radioligand binding: human MC4 membranes, 10 µM
# T9 construct: purchased Perkin Elmer Biosignal
# T9 sequence (P32245 whole entry): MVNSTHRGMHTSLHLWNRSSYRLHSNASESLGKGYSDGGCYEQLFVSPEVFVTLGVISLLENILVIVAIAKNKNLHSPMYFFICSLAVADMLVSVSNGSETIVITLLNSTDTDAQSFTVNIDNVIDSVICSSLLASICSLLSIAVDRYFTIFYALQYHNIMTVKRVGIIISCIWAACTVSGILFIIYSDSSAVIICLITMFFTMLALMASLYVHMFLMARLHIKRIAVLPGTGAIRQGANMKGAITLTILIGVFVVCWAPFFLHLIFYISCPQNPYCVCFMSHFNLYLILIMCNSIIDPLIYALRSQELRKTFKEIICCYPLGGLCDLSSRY
# Outline: as §1
# Human μ-opioid (MOP) = target: T10, Human μ-opioid (MOP) (Homo sapiens, UniProt P35372); assay: Radioligand binding, human μ-opioid (MOP) membranes, FlashPlate, [3H]-Naloxone; settings: compound at 10 μM; for A7 radioligand binding, percentage inhibition / A7: inhibition of radioligand binding: [3H]-Naloxone; for A7: inhibition of radioligand binding: human MOP membranes
# T10 construct: purchased Perkin Elmer Biosignal
# T10 sequence (P35372 whole entry): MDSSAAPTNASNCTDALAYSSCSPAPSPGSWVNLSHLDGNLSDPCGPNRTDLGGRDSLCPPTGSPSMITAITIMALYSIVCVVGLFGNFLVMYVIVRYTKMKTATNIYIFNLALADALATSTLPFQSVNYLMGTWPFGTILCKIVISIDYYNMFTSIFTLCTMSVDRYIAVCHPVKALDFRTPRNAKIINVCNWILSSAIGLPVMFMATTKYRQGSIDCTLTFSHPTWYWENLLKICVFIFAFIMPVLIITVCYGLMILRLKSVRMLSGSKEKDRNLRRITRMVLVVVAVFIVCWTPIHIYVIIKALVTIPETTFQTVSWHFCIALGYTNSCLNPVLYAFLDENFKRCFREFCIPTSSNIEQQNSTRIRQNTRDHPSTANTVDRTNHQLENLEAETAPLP
# Outline: as §1
# Human κ-Opioid (KOP) = target: T11, Human κ-Opioid (KOP) (Homo sapiens, UniProt P41145); assay: Radioligand binding, human κ-opioid (KOP) membranes, filtration, [3H]-Diprenorphine; settings: compound at 10 μM; for A2 radioligand binding, percentage inhibition / A2: inhibition of radioligand binding: [3H]-Diprenorphine; for A2: inhibition of radioligand binding: human KOP membranes
# T11 construct: purchased Perkin Elmer Biosignal
# T11 sequence (P41145 whole entry): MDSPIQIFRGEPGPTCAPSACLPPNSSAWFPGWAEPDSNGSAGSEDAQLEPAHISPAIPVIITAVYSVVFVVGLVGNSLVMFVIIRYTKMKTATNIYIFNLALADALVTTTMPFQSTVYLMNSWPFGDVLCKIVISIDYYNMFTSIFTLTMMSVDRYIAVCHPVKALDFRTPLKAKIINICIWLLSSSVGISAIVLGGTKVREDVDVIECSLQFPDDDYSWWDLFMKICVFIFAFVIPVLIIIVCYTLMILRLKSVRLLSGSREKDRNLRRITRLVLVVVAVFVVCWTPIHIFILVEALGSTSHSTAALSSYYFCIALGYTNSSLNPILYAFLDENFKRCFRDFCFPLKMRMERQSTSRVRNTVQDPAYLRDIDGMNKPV
# Outline: as §2
smiles,measurement,setting,value
COCC1OC(OCc2ccccc2)C(NC(=O)CNC(=N)N)C(OCc2ccc(Cl)cc2)C1O (stereo not shown) [compound 177],"A9 radioligand binding, percentage inhibition",[1],− (“−” indicates less than 50% inhibition at 10 μM)
same,"A3 radioligand binding, percentage inhibition",Human Melanocortin (MC3),+ (“+” indicates greater than 50% inhibition at 10 μM)
same,"A10 radioligand binding, percentage inhibition",Human opioid (ORL1),− (“−” indicates less than 50% inhibition at 10 μM)
same,"A1 radioligand binding, percentage inhibition",Human δ-opioid (DOP),− (“−” indicates less than 50% inhibition at 10 μM)
same,"A8 radioligand binding, percentage inhibition",Human neurokinin (NK1),+ (“+” indicates greater than 50% inhibition at 10 μM)
same,"A6 radioligand binding, percentage inhibition",[2],− (“−” indicates less than 50% inhibition at 10 μM)
same,"A11 radioligand binding, percentage inhibition",Mouse urotensin (mUR2),− (“−” indicates less than 50% inhibition at 10 μM)
same,"A5 radioligand binding, percentage inhibition",Human melanocortin (MC5),+ (“+” indicates greater than 50% inhibition at 10 μM)
same,"A4 radioligand binding, percentage inhibition",Human Melanocortin (MC4),+ (“+” indicates greater than 50% inhibition at 10 μM)
same,"A7 radioligand binding, percentage inhibition",Human μ-opioid (MOP),− (“−” indicates less than 50% inhibition at 10 μM)
same,"A2 radioligand binding, percentage inhibition",Human κ-Opioid (KOP),− (“−” indicates less than 50% inhibition at 10 μM)
NCCCC(=O)NC1C(OCc2ccc3ccccc3c2)OC(COCc2ccccc2)C(O)C1OCc1ccccc1 (stereo not shown) [compound 397],A9: inhibition of radioligand binding,[1]; human NPY-Y1 membranes,− (“−” indicates less than 50% inhibition at 10 μM)
same,A3: inhibition of radioligand binding,Human Melanocortin (MC3),− (“−” indicates less than 50% inhibition at 10 μM)
same,A10: inhibition of radioligand binding,"Human opioid (ORL1); human ORL1 membranes, 10 µM",+ (“+” indicates greater than 50% inhibition at 10 μM)
same,A1: inhibition of radioligand binding,Human δ-opioid (DOP),− (“−” indicates less than 50% inhibition at 10 μM)
same,A8: inhibition of radioligand binding,Human neurokinin (NK1),+ (“+” indicates greater than 50% inhibition at 10 μM)
same,A6: inhibition of radioligand binding,[2],− (“−” indicates less than 50% inhibition at 10 μM)
same,A11: inhibition of radioligand binding,Mouse urotensin (mUR2),− (“−” indicates less than 50% inhibition at 10 μM)
same,A5: inhibition of radioligand binding,Human melanocortin (MC5),− (“−” indicates less than 50% inhibition at 10 μM)
same,A4: inhibition of radioligand binding,Human Melanocortin (MC4),+ (“+” indicates greater than 50% inhibition at 10 μM)
same,A7: inhibition of radioligand binding,Human μ-opioid (MOP); 10 µM,− (“−” indicates less than 50% inhibition at 10 μM)
same,A2: inhibition of radioligand binding,Human κ-Opioid (KOP),− (“−” indicates less than 50% inhibition at 10 μM)
CO[C@H]1[C@H](O)[C@@H](COCc2cccc(O)c2)OC(OCCc2ccccc2)[C@@H]1NC(=O)CCCNC(=N)N (stereo partly shown) [compound 161],"A9 radioligand binding, percentage inhibition",[1],− (“−” indicates less than 50% inhibition at 10 μM)
same,"A3 radioligand binding, percentage inhibition",Human Melanocortin (MC3),− (“−” indicates less than 50% inhibition at 10 μM)
same,"A10 radioligand binding, percentage inhibition",Human opioid (ORL1),− (“−” indicates less than 50% inhibition at 10 μM)
same,"A1 radioligand binding, percentage inhibition",Human δ-opioid (DOP),− (“−” indicates less than 50% inhibition at 10 μM)
same,"A8 radioligand binding, percentage inhibition",Human neurokinin (NK1),+ (“+” indicates greater than 50% inhibition at 10 μM)
same,"A6 radioligand binding, percentage inhibition",[2],− (“−” indicates less than 50% inhibition at 10 μM)
same,"A11 radioligand binding, percentage inhibition",Mouse urotensin (mUR2),− (“−” indicates less than 50% inhibition at 10 μM)
same,"A5 radioligand binding, percentage inhibition",Human melanocortin (MC5),− (“−” indicates less than 50% inhibition at 10 μM)
same,"A4 radioligand binding, percentage inhibition",Human Melanocortin (MC4),− (“−” indicates less than 50% inhibition at 10 μM)
same,"A7 radioligand binding, percentage inhibition",Human μ-opioid (MOP),− (“−” indicates less than 50% inhibition at 10 μM)
same,"A2 radioligand binding, percentage inhibition",Human κ-Opioid (KOP),− (“−” indicates less than 50% inhibition at 10 μM)
NCCC(=O)N[C@H]1C(OCc2ccc3ccccc3c2)O[C@H](COCc2ccc(Cl)cc2)[C@@H](O)[C@@H]1OCc1ccc2ccccc2c1 (stereo partly shown) [compound 447],A9: inhibition of radioligand binding,[1]; human NPY-Y1 membranes,− (“−” indicates less than 50% inhibition at 10 μM)
same,A3: inhibition of radioligand binding,Human Melanocortin (MC3); 10 µM,+ (“+” indicates greater than 50% inhibition at 10 μM)
same,A10: inhibition of radioligand binding,Human opioid (ORL1); human ORL1 membranes,− (“−” indicates less than 50% inhibition at 10 μM)
same,A1: inhibition of radioligand binding,Human δ-opioid (DOP),− (“−” indicates less than 50% inhibition at 10 μM)
same,A8: inhibition of radioligand binding,Human neurokinin (NK1),+ (“+” indicates greater than 50% inhibition at 10 μM)
same,A6: inhibition of radioligand binding,[2]; 10 µM,+ (“+” indicates greater than 50% inhibition at 10 μM)
same,A11: inhibition of radioligand binding,Mouse urotensin (mUR2),− (“−” indicates less than 50% inhibition at 10 μM)
same,A5: inhibition of radioligand binding,Human melanocortin (MC5),+ (“+” indicates greater than 50% inhibition at 10 μM)
same,A4: inhibition of radioligand binding,Human Melanocortin (MC4),+ (“+” indicates greater than 50% inhibition at 10 μM)
same,A7: inhibition of radioligand binding,Human μ-opioid (MOP),− (“−” indicates less than 50% inhibition at 10 μM)
same,A2: inhibition of radioligand binding,Human κ-Opioid (KOP),− (“−” indicates less than 50% inhibition at 10 μM)
COC[C@H]1OC(OCc2ccc(Cl)cc2)[C@H](NC(=O)CCNC(=N)N)[C@@H](OCc2ccccc2)[C@@H]1O (stereo partly shown) [compound 34],A9 radioligand binding inhibition,[1]; human NPY-Y1 membranes,− (“−” indicates less than 50% inhibition at 10 μM)
same,A3 radioligand binding inhibition,Human Melanocortin (MC3); human melanocortin MC3 membranes,− (“−” indicates less than 50% inhibition at 10 μM)
same,A10 radioligand binding inhibition,Human opioid (ORL1); human ORL1 membranes,− (“−” indicates less than 50% inhibition at 10 μM)
same,A1 radioligand binding inhibition,Human δ-opioid (DOP); human δ-opioid (DOP) membranes,− (“−” indicates less than 50% inhibition at 10 μM)
same,A8 radioligand binding inhibition,Human neurokinin (NK1); human neurokinin NK1 membranes,+ (“+” indicates greater than 50% inhibition at 10 μM)
same,A6 radioligand binding inhibition,[2]; human MCH1 membranes,− (“−” indicates less than 50% inhibition at 10 μM)
same,A11 radioligand binding inhibition,Mouse urotensin (mUR2); mouse urotensin mUR2 membranes,− (“−” indicates less than 50% inhibition at 10 μM)
same,A5 radioligand binding inhibition,Human melanocortin (MC5); human melanocortin MC5 membranes,− (“−” indicates less than 50% inhibition at 10 μM)
same,A4 radioligand binding inhibition,Human Melanocortin (MC4); human melanocortin MC4 membranes,− (“−” indicates less than 50% inhibition at 10 μM)
same,A7 radioligand binding inhibition,Human μ-opioid (MOP); human μ-opioid (MOP) membranes,− (“−” indicates less than 50% inhibition at 10 μM)
same,A2 radioligand binding inhibition,Human κ-Opioid (KOP); human κ-opioid (KOP) membranes,− (“−” indicates less than 50% inhibition at 10 μM)

# Source: patent publication US20080009418A1, “Selective Inhibitors” (Alchemia LTD., priority 2004, published 2008)
